The source of these data is patent publication US10738094B2, “Peptides and combination of peptides for use in immunotherapy against ovarian cancer and other cancers” (immatics biotechnologies GmbH, priority 2015, dated 2020).

One assay has as its target HLA-A*02:01 (Homo sapiens, UniProt P04439, D140Y/D185E/D98H/E176V/E277Q/G131W/G231S/I119V/I121R/I166T/I218V/L300P/L318F/N151K/N90K/P208A/P217A/Q86G/Q94H/R138H/R169H/T345S). As to the kind of experiment: MHC binding assay (UV-ligand exchange, beta2m ELISA). Particulars: binding to HLA-A*02:01 ranged by peptide exchange yield (UV-ligand exchange, β2m ELISA). In outline:
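Stabilised complexes were quantified via their β2m light chain: 100-fold-diluted monomers bound to streptavidin plates, then HRP anti-β2m at 2 ug/ml for 1 h at 37° C., TMB read at 450 nm. The value is the yield of UV-induced exchange of a photocleavable peptide for the candidate.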
For orientation: In an ELISA, binding on a coated surface is turned into a signal by an enzyme label.

The next assay deals with CD8+ T cells. Put plainly: In vitro immunogenicity for MHC class I presented peptides (priming of CD8+ T cells with aAPCs, pMHC multimer staining). Format: cell-based, human. Conditions: for Wells positive [%]: HLA-A*02 restricted peptides, positive wells among evaluable. From the text: In order to obtain information regarding the immunogenicity of the TUMAPs of the present invention, the inventors performed investigations using an in vitro T-cell priming assay based on repeated stimulations of CD8+ T cells with artificial antigen presenting cells (aAPCs) loaded with peptide/MHC complexes and anti-CD28 antibody.
In order to perform in vitro stimulations by artificial antigen presenting cells loaded with peptide-MHC complex (pMHC) and anti-CD28 antibody, the inventors first isolated CD8+ T cells from fresh HLA-A*02 leukapheresis products via positive selection using CD8 microbeads (Miltenyi Biotec, Bergisch-Gladbach, Germany) of healthy donors obtained from the University clinics Mannheim, Germany, after informed consent.
PBMCs and isolated CD8+ lymphocytes were incubated in T-cell medium (TCM) until use consisting of RPMI-Glutamax (Invitrogen, Karlsruhe, Germany) supplemented with 10% heat inactivated human AB serum (PAN-Biotech, Aidenbach, Germany), 100 U/ml Penicillin/100 μg/ml Streptomycin (Cambrex, Cologne, Germany), 1 mM sodium pyruvate (CC Pro, Oberdorla, Germany), 20 μg/ml Gentamycin (Cambrex). 2.5 ng/ml IL-7 (PromoCell, Heidelberg, Germany) and 10 U/ml IL-2 (Novartis Pharma, Nürnberg, Germany) were also added to the TCM at this step.
Generation of pMHC/anti-CD28 coated beads, T-cell stimulations and readout was performed in a highly defined in vitro system using four different pMHC molecules per stimulation condition and 8 different pMHC molecules per readout condition.
The purified co-stimulatory mouse IgG2a anti human CD28 Ab 9.3 (Jung et al., 1987) was chemically biotinylated using Sulfo-N-hydroxysuccinimidobiotin as recommended by the manufacturer (Perbio, Bonn, Germany). Beads used were 5.6 μm diameter streptavidin coated polystyrene particles (Bangs Laboratories, Illinois, USA).
pMHC used for positive and negative control stimulations were A*0201/MLA-001 (peptide […] (SEQ ID NO. 664) from modified Melan-A/MART-1) and A*0201/DDX5-001 ([…] from DDX5, SEQ ID NO. 665), respectively.
800,000 beads/200 μl were coated in 96-well plates in the presence of 4×12.5 ng different biotin-pMHC, washed and 600 ng biotin anti-CD28 were added subsequently in a volume of 200 μl. Stimulations were initiated in 96-well plates by co-incubating […] CD8+ T cells with 2×10^5 washed coated beads in 200 μl TCM supplemented with 5 ng/ml IL-12 (PromoCell) for 3 days at 37° C. Half of the medium was then exchanged by fresh TCM supplemented with 80 U/ml IL-2 and incubating was continued for 4 days at 37° C. This stimulation cycle was performed for a total of three times. For the pMHC multimer readout using 8 different pMHC molecules per condition, a two-dimensional combinatorial coding approach was used as previously described (Andersen et al., 2012) with minor modifications encompassing coupling to 5 different fluorochromes. Finally, multimeric analyses were performed by staining the cells with Live/dead near IR dye (Invitrogen, Karlsruhe, Germany), CD8-FITC antibody clone SK1 (BD, Heidelberg, Germany) and fluorescent pMHC multimers. For analysis, a BD LSRII SORP cytometer equipped with appropriate lasers and filters was used. Peptide specific cells were calculated as percentage of total CD8+ cells. Evaluation of multimeric analysis was done using the FlowJo software (Tree Star, Oreg., USA). In vitro priming of specific multimer+ CD8+ lymphocytes was detected by comparing to negative control stimulations.
Exemplary flow cytometry results after TUMAP-specific multimer staining for two peptides of the invention are shown in FIG. 3 together with corresponding negative controls.

With “2 (SLLEADPFL; listed as Homo sapiens) [compound 2]”, the Peptide exchange entry with HLA-A*02:01 was ““+++” (≥50 = +++)”. Also, the “Wells positive [%]” value in the assay on CD8+ T cells was ““+” (<20% = +)”.

For “3 (SLASKLTTL; listed as Homo sapiens) [compound 3]”, the Peptide exchange result with HLA-A*02:01 was ““++++” (≥75% = ++++)”. Further, the “Wells positive [%]” value in the assay with CD8+ T cells is reported as ““+” (<20% = +)”.

With “8 (FTLGNVVGMYL; listed as Homo sapiens) [compound 8]”, the Peptide exchange result in the assay with HLA-A*02:01 is on record as ““++++” (≥75% = ++++)”. The “Wells positive [%]” value in the assay with CD8+ T cells is given as ““+” (<20% = +)”.

With “11 (KIFEMLEGV; listed as Homo sapiens) [compound 11]”, the Peptide exchange entry with HLA-A*02:01 is recorded as ““+++” (≥50 = +++)”. Further, in the assay with CD8+ T cells, the “Wells positive [%]” value is ““+” (<20% = +)”.

As for “36 (YVLEDLEVTV; listed as Homo sapiens) [compound 36]”, the Peptide exchange result with HLA-A*02:01 is ““++” (≥20% = ++)”. For the same substance, in the assay on CD8+ T cells, the “Wells positive [%]” value is on record as ““+” (<20% = +)”.

Turning to “38 (FLLEDDIHVS; listed as Homo sapiens) [compound 38]”, the Peptide exchange result in the assay with HLA-A*02:01 is given as ““+++” (≥50 = +++)”. Further, the “Wells positive [%]” value in the assay with CD8+ T cells is ““+” (<20% = +)”.

In the case of “48 (ALAELYEDEV; listed as Homo sapiens) [compound 48]”, the Peptide exchange result with HLA-A*02:01 is ““+++” (≥50 = +++)”. Moreover, the “Wells positive [%]” value in the assay with CD8+ T cells is ““+” (<20% = +)”.

For “56 (KLYEGIPVLL; listed as Homo sapiens) [compound 56]”, the Peptide exchange result with HLA-A*02:01 is recorded as ““++++” (≥75% = ++++)”. The “Wells positive [%]” value in the assay with CD8+ T cells is on record as ““+” (<20% = +)”.

Regarding “60 (SLTIDGIYYV; listed as Homo sapiens) [compound 60]”, the Peptide exchange result in the assay with HLA-A*02:01 is on record as ““++++” (≥75% = ++++)”. Moreover, the “Wells positive [%]” value in the assay on CD8+ T cells is given as ““++++” (>=70% = ++++)”.

Take “79 (SLFIGEKAVLL; listed as Homo sapiens) [compound 79]”: in the assay with HLA-A*02:01, the Peptide exchange entry is recorded as ““+++” (≥50 = +++)”. Further, the “Wells positive [%]” value with CD8+ T cells is on record as ““+” (<20% = +)”.

Take “113 (GLLPTPLFGV; listed as Homo sapiens) [compound 113]”: the Peptide exchange entry in the assay with HLA-A*02:01 is ““+++” (≥50 = +++)”. Moreover, the “Wells positive [%]” value in the assay on CD8+ T cells was ““+” (<20% = +)”.

For “118 (KLIDNNINV; listed as Homo sapiens) [compound 118]”, the Peptide exchange result with HLA-A*02:01 is recorded as ““+++” (≥50 = +++)”. For the same substance, the “Wells positive [%]” value in the assay on CD8+ T cells is ““+” (<20% = +)”.

On to “141 (YLDFSNNRL; listed as Homo sapiens) [compound 141]”, for which, in the assay with HLA-A*02:01, the Peptide exchange entry is on record as ““++” (≥20% = ++)”. The “Wells positive [%]” value in the assay on CD8+ T cells was ““+” (<20% = +)”.

As to “143 (LLLDITPEI; listed as Homo sapiens) [compound 143]”, the Peptide exchange result with HLA-A*02:01 is given as ““++++” (≥75% = ++++)”. In the assay with CD8+ T cells, the “Wells positive [%]” value is ““+” (<20% = +)”.

In the case of “150 (RLWEEGEELEL; listed as Homo sapiens) [compound 150]”, the Peptide exchange entry with HLA-A*02:01 is ““+++” (≥50 = +++)”. The “Wells positive [%]” value in the assay on CD8+ T cells is ““+” (<20% = +)”.

In the case of “166 (YLNHLEPPV; listed as Homo sapiens) [compound 166]”, in the assay with HLA-A*02:01, the Peptide exchange result is listed as ““+++” (≥50 = +++)”. For the same substance, the “Wells positive [%]” value in the assay with CD8+ T cells was ““++++” (>=70% = ++++)”.

As for “199 (ALQDVPLSSV; listed as Homo sapiens) [compound 199]”, the Peptide exchange entry in the assay with HLA-A*02:01 was ““+++” (≥50 = +++)”. The “Wells positive [%]” value with CD8+ T cells is on record as ““+” (<20% = +)”.

“247 (VLLPNDLLEKV; listed as Homo sapiens) [compound 247]”: the Peptide exchange entry with HLA-A*02:01 was ““+++” (≥50 = +++)”. Moreover, the “Wells positive [%]” value in the assay with CD8+ T cells was ““+” (<20% = +)”.

Regarding “319 (SLEPQIQPV; listed as Homo sapiens) [compound 319]”, the Peptide exchange entry with HLA-A*02:01 is ““++” (≥20% = ++)”. Further, in the assay on CD8+ T cells, the “Wells positive [%]” value is ““+” (<20% = +)”.

Regarding “384 (ILFANPNIFV; listed as Homo sapiens) [compound 384]”, the Peptide exchange result with HLA-A*02:01 was ““+++” (≥50 = +++)”. The “Wells positive [%]” value with CD8+ T cells is given as ““+” (<20% = +)”.

Regarding “443 (GLWEIENNPTV; listed as Homo sapiens) [compound 443]”, the Peptide exchange entry with HLA-A*02:01 was ““+++” (≥50 = +++)”. Moreover, the “Wells positive [%]” value in the assay on CD8+ T cells was ““+” (<20% = +)”.

As for “460 (AMLEKNYKL; listed as Homo sapiens) [compound 460]”, the Peptide exchange result with HLA-A*02:01 is ““++++” (≥75% = ++++)”. Moreover, the “Wells positive [%]” value with CD8+ T cells is ““+” (<20% = +)”.

Turning to “489 (KMWEELPEVV; listed as Homo sapiens) [compound 489]”, the Peptide exchange entry with HLA-A*02:01 is listed as ““+++” (≥50 = +++)”. In the assay with CD8+ T cells, the “Wells positive [%]” value is ““+” (<20% = +)”.

Consider “499 (KIFDIDEAEEGV; listed as Homo sapiens) [compound 499]”, for which the Peptide exchange result with HLA-A*02:01 was ““++” (≥20% = ++)”. For the same substance, the “Wells positive [%]” value in the assay with CD8+ T cells is reported as ““+” (<20% = +)”.

As to “511 (FLDPYCSASV; listed as Homo sapiens) [compound 511]”, the Peptide exchange result in the assay with HLA-A*02:01 is on record as ““++” (≥20% = ++)”. For the same substance, the “Wells positive [%]” value in the assay on CD8+ T cells is listed as ““+” (<20% = +)”.

As to “603 (FLIEPEHVNTV; listed as Homo sapiens) [compound 603]”, in the assay with HLA-A*02:01, the Peptide exchange result is ““++” (≥20% = ++)”. The “Wells positive [%]” value in the assay on CD8+ T cells was ““+” (<20% = +)”.

For the substance “652 (TLWYRAPEV; listed as Homo sapiens) [compound 652]”, the “in vitro immunogenicity: donors” value with CD8+ T cells (percentage of positive donors) was “++++ (>=70% = ++++)”.
